We go through 65 molecules from patent publication US11931343B2 (ARCUS BIOSCIENCES, INC., priority 2018, dated 2024).

SMILES strings stand for the structures.

One may read the IC50 as the concentration that gives 50% inhibition.

The test concerns the target T1, human CD73 (Homo sapiens, UniProt P21589).
T1 sequence (P21589 27-549): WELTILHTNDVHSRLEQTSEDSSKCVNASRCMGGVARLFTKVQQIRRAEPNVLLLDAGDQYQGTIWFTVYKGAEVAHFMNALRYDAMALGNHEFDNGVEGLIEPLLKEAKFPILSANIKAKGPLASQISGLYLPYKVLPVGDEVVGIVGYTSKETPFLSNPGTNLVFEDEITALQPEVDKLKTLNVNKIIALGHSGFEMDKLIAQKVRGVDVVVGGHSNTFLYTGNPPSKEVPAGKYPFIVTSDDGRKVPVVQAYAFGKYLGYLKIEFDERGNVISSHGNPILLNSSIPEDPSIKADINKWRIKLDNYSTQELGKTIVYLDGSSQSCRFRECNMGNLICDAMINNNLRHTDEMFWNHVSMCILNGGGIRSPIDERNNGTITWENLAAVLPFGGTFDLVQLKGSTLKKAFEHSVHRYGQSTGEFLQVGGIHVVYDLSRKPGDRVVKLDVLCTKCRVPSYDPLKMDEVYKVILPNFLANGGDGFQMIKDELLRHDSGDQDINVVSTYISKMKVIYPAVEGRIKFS
As to the kind of experiment: Inhibition of Ecto-5′-nucleotidase (CD73) activity in CHO-CD73 cells, phosphate release from AMP. To be noted: CHO-K1 cells stably transfected with human CD73; 25 μM AMP; 50 minutes, 37° C.; read-out: Potency: CD73 IC50. Format: cell-based.
Consider `Clc1cnc(Cn2nccc2-c2cc(Cl)c3nnn(-c4ccc5cn[nH]c5c4)c3c2)c(Cl)c1` [Example 80], for which the half-maximal inhibitory concentration (IC50) was 100 to 1000 nM.
On to `Fc1cnc(Cn2nccc2-c2cc(Cl)c3nnn(-c4ccc5cn[nH]c5c4)c3c2)c(Cl)c1` [Example 81], for which the IC50 lay in the range of 100 to 1000 nM.
As for `Fc1cc(Cn2nccc2-c2cc(Cl)c3nnn(-c4ccc5cn[nH]c5c4)c3c2)ccc1Cl` [Example 82], the IC50 was less than 100 nM.
Regarding `Fc1cc(Cl)ccc1Cn1nccc1-c1cc(Cl)c2nnn(-c3ccc4cn[nH]c4c3)c2c1` [Example 83], the IC50 was less than 100 nM.
As for `Cc1ccc(Cn2nccc2-c2cc(Cl)c3nnn(-c4ccc5cn[nH]c5c4)c3c2)nc1` [Example 84], the IC50 lay in the range of 100 to 1000 nM.
With `Fc1cc(-c2ccnn2Cc2ccccn2)cc2c1nnn2-c1ccc2cn[nH]c2c1` [Example 85], the half-inhibitory concentration (IC50) was 100 to 1000 nM.
Regarding `Cc1ccc(Cn2nccc2-c2cc(F)c3nnn(-c4ccc5cn[nH]c5c4)c3c2)nc1` [Example 86], the IC50 lay within 100 to 1000 nM.
In the case of `Cc1cnc(Cn2nccc2-c2cc(F)c3nnn(-c4ccc5cn[nH]c5c4)c3c2)c(F)c1` [Example 87] it was more than 1000 nM; in that of `Cc1cc(F)cnc1Cn1nccc1-c1cc(F)c2nnn(-c3ccc4cn[nH]c4c3)c2c1` [Example 88], more than 1000 nM; in that of `Cc1ccc(Cn2nccc2-c2cc(Cl)c3nnn(-c4ccc5cn[nH]c5c4)c3c2)c(Cl)c1` [Example 89], less than 100 nM.
In the case of `Brc1ccc(Cn2nccc2-c2ccc3nnn(-c4ccc5cn[nH]c5c4)c3c2)cc1` [Example 90], the half-inhibitory concentration (IC50) was in the range of 100 to 1000 nM.
Then `Fc1cc(-c2ccnn2Cc2ccc(C(F)F)cc2)cc2c1nnn2-c1ccc2cn[nH]c2c1` [Example 91], with 100 to 1000 nM.
With `CC(c1ccc(Br)cn1)n1nccc1-c1ccc2nnn(-c3ccc4cn[nH]c4c3)c2c1` (centres unmarked) [Example 92], the IC50 was in the range of 100 to 1000 nM.
As to `c1cc(-c2ccc3nnn(-c4ccc5cn[nH]c5c4)c3c2)n(CC2CCCCO2)n1` (centres unmarked) [Example 93], the IC50 was more than 1000 nM.
Then `Clc1cc(-c2ccnn2CC2CCCCO2)cc2c1nnn2-c1ccc2cn[nH]c2c1` (centres unmarked) [Example 94], with 100 to 1000 nM; and `Cc1cc(Cl)ccc1Cn1nccc1-c1cc(F)c2nnn(-c3ccc4cn[nH]c4c3)c2c1` [Example 95], with less than 100 nM.
Then `Cc1cc(Cl)ccc1Cn1nccc1-c1cc(Cl)c2nnn(-c3ccc4cn[nH]c4c3)c2c1` [Example 96], with less than 100 nM; and `Cc1ccc(Cn2nccc2-c2cc(F)c3nnn(-c4ccc5cn[nH]c5c4)c3c2)c(Cl)c1` [Example 97], with less than 100 nM; and `Fc1cccnc1Cn1nccc1-c1ccc2nnn(-c3ccc4cn[nH]c4c3)c2c1` [Example 98], with more than 1000 nM.
Take `CC(c1ccccn1)n1nccc1-c1cc(Cl)c2nnn(-c3ccc4cn[nH]c4c3)c2c1` (centres unmarked) [Example 99]: the half-maximal inhibitory concentration (IC50) was more than 1000 nM.
In the case of `Cc1ccc(Cn2nccc2-c2cc(F)c3nnn(-c4ccc5cn[nH]c5c4)c3c2)cc1` [Example 100] it was 100 to 1000 nM.
Then `Fc1cc(-c2ccnn2Cc2ccc(Cl)cn2)cc2c1nnn2-c1ccc2cn[nH]c2c1` [Example 101], with less than 100 nM; and `FC(F)(F)c1ccccc1Cn1nccc1-c1cc(Cl)c2nnn(-c3ccc4cn[nH]c4c3)c2c1` [Example 102], with 100 to 1000 nM; and `Fc1cc(-c2ccnn2Cc2ccccc2C(F)(F)F)cc2c1nnn2-c1ccc2cn[nH]c2c1` [Example 103], with 100 to 1000 nM.
`Fc1cc(Cl)cnc1Cn1nccc1-c1cc(Cl)c2nnn(-c3ccc4cn[nH]c4c3)c2c1` [Example 104]: the IC50 lay within 100 to 1000 nM.
Take `N#Cc1ccc(Cn2nccc2-c2cc(Cl)c3nnn(-c4ccc5cn[nH]c5c4)c3c2)nc1` [Example 106]: the half-inhibitory concentration (IC50) was 100 to 1000 nM.
Turning to `N#Cc1ccc(Cn2nccc2-c2cc(F)c3nnn(-c4ccc5cn[nH]c5c4)c3c2)nc1` [Example 107], the 50% inhibitory concentration (IC50) is 100 to 1000 nM.
Turning to `FC(F)(F)c1ccc(Cn2nccc2-c2cc(Cl)c3nnn(-c4ccc5cn[nH]c5c4)c3c2)nc1` [Example 108], the IC50 is 100 to 1000 nM.
As to `Clc1ccc(Cn2nccc2-c2cc(Cl)c3nnn(-c4ccc5cn[nH]c5c4)c3c2)c(Br)c1` [Example 109], the IC50 lay in the range of 100 to 1000 nM.
Turning to `FC(F)(F)c1ccc(Cn2nccc2-c2cc(Cl)c3nnn(-c4ccc5cn[nH]c5c4)c3c2)c(Cl)c1` [Example 110], the IC50 lay in the range of 100 to 1000 nM.
Turning to `N#Cc1ccc(Cn2nccc2-c2cc(Cl)c3nnn(-c4ccc5cn[nH]c5c4)c3c2)c(F)c1` [Example 112], the half-inhibitory concentration (IC50) was less than 100 nM.
For the molecule `N#Cc1ccc(Cn2nccc2-c2cc(C#N)c3nnn(-c4ccc5cn[nH]c5c4)c3c2)cc1` [Example 114], the half-inhibitory concentration (IC50) lay within 100 to 1000 nM.
Then `CC(c1ccc(C#N)cc1)n1nccc1-c1ccc2nnn(-c3ccc4cn[nH]c4c3)c2c1` (centres unmarked) [Example 115], with 100 to 1000 nM.
Then `CC(c1ccc(C#N)cc1)n1nccc1-c1cc(F)c2nnn(-c3ccc4cn[nH]c4c3)c2c1` (centres unmarked) [Example 116], with 100 to 1000 nM; and `CC(c1ccc(C#N)cc1)n1nccc1-c1cc(Cl)c2nnn(-c3ccc4cn[nH]c4c3)c2c1` (centres unmarked) [Example 117], with 100 to 1000 nM.
As for `CC(c1ccc(C(N)=O)cc1)n1nccc1-c1ccc2nnn(-c3ccc4cn[nH]c4c3)c2c1` (centres unmarked) [Example 118], the concentration for half-maximal inhibition (IC50) is more than 1000 nM.
Then `c1cc(-c2ccc3nnn(-c4ccc5cn[nH]c5c4)c3c2)n(Cc2ccc(C3CC3)cc2)n1` [Example 119], with 100 to 1000 nM; and `N#Cc1ccc(Cn2nccc2-c2cc(F)c3nnn(-c4ccc5nc[nH]c5c4)c3c2)cc1` [Example 120], with more than 1000 nM.
In the case of `FC1(F)CN(CCn2nccc2-c2ccc3nnn(-c4ccc5cn[nH]c5c4)c3c2)C1` [Example 121] it was more than 1000 nM; in that of `FC(F)(F)c1cc(-c2ccnn2Cc2ccc(Cl)cc2Cl)cc2c1nnn2-c1ccc2cn[nH]c2c1` [Example 122], 100 to 1000 nM.
Then `N#Cc1ccc(Cn2nccc2-c2cc(C(F)(F)F)c3nnn(-c4ccc5cn[nH]c5c4)c3c2)cc1` [Example 123], with 100 to 1000 nM.
For `Clc1cc(-c2ccnn2CCc2ccccc2)cc2c1nnn2-c1ccc2cn[nH]c2c1` [Example 124], the 50% inhibitory concentration (IC50) was in the range of 100 to 1000 nM.
In the case of `N#Cc1ccc(Cn2nccc2-c2cc(C(F)(F)F)c3nnn(-c4ccc5cn[nH]c5c4)c3c2)nc1` [Example 125] it was 100 to 1000 nM; in that of `Clc1ccc(Cn2nccc2-c2ccn3nnc(-c4ccc5cn[nH]c5c4)c3c2)c(Cl)c1` [Example 126], less than 100 nM; in that of `O=C(O)c1n[nH]c2cc(-n3nnc4c(Cl)cc(-c5ccnn5Cc5ccc(Cl)cc5Cl)cc43)ccc12` [Example 127], more than 1000 nM.
As to `c1ccc(Cn2nccc2-c2cc3c(cn2)nnn3-c2ccc3cn[nH]c3c2)cc1` [Example 128], the half-inhibitory concentration (IC50) fell in the range of 100 to 1000 nM.
Consider `N#Cc1ccc(Cn2nccc2-c2cnc3nnn(-c4ccc5cn[nH]c5c4)c3c2)cc1` [Example 129], for which the IC50 is 100 to 1000 nM.
In the case of `Fc1c(-c2ccnn2Cc2ccccc2)ccc2nnn(-c3ccc4cn[nH]c4c3)c12` [Example 130] it was more than 1000 nM.
In the case of `N#Cc1ccc(Cn2nccc2-c2cc(F)c3cnn(-c4ccc5cn[nH]c5c4)c3c2)nc1` [Example 131] it was more than 1000 nM.
In the case of `O=C(O)c1cccc(-n2nnc3c(F)cc(-c4ccnn4Cc4ccc(Cl)cc4Cl)cc32)c1` [Example 132] it was more than 1000 nM; in that of `Fc1cc(-c2ccnn2Cc2ccc(Cl)cn2)cc2c1cnn2-c1ccc2cn[nH]c2c1` [Example 133], more than 1000 nM; in that of `Clc1ccc(Cn2nccc2-c2cnc3nnn(-c4ccc5cn[nH]c5c4)c3c2)c(Cl)c1` [Example 134], 100 to 1000 nM.
For the molecule `Fc1cc2nnn(-c3ccc4cn[nH]c4c3)c2cc1-c1ccnn1Cc1ccccc1` [Example 136], the IC50 is more than 1000 nM.
Then `Fc1cc(-c2ccnn2Cc2ccccc2)cc2c1nnn2-c1cnc2cn[nH]c2c1` [Example 137], with more than 1000 nM; and `Fc1cc(-c2ccnn2Cc2ccccc2)cc2c1nnn2-c1cc2[nH]ncc2cn1` [Example 138], with more than 1000 nM; and `Nc1cc(-n2nnc3c(Cl)cc(-c4ccnn4Cc4ccc(Cl)cc4Cl)cc32)ccn1` [Example 139], with 100 to 1000 nM.
As to `N#Cc1ccc(Cn2nccc2-c2cc3c(cn2)nnn3-c2ccc3cn[nH]c3c2)cc1` [Example 140], the IC50 fell in the range of 100 to 1000 nM.
On to `Clc1ccc(Cn2nccc2-c2cc3c(cn2)nnn3-c2ccc3cn[nH]c3c2)c(Cl)c1` [Example 142], for which the IC50 is less than 100 nM.
`O=C1CCC(c2cc(F)c3nnn(-c4ccc5cn[nH]c5c4)c3c2)N1Cc1ccc(Cl)cc1Cl` (centres unmarked) [Example 143]: the IC50 was more than 1000 nM.
Then `N#Cc1ccc(Cn2nccc2-c2cc(F)c3nnn(-c4cc5[nH]ncc5cc4F)c3c2)cc1` [Example 144], with less than 100 nM; and `N#Cc1ccc(Cn2nccc2-c2cc(Cl)c3nnn(-c4ccnc(N)c4)c3c2)nc1` [Example 145], with more than 1000 nM.
Turning to `N#Cc1ccc(Cn2nccc2-c2cc3c(cn2)ncn3-c2ccc3cn[nH]c3c2)cc1` [Example 146], the IC50 was more than 1000 nM.
In the case of `N#Cc1ccc(Cn2nccc2-c2cc3c(cn2)cnn3-c2ccc3cn[nH]c3c2)cc1` [Example 147] it was more than 1000 nM; in that of `Clc1ccc(Cn2nccc2-c2cc3c(cn2)cnn3-c2ccc3cn[nH]c3c2)nc1` [Example 149], more than 1000 nM; in that of `N#Cc1ccc(Cn2nccc2-c2cc3c(cc2Cl)nnn3-c2ccc3cn[nH]c3c2)cc1` [Example 150], less than 100 nM.
